This is an account of results in PMC7451048 (Drug metabolism letters, 2019).

For series [1], the target named is T1, OATP2B1 (Homo sapiens, UniProt O94956).
T1 sequence (O94956 1-709): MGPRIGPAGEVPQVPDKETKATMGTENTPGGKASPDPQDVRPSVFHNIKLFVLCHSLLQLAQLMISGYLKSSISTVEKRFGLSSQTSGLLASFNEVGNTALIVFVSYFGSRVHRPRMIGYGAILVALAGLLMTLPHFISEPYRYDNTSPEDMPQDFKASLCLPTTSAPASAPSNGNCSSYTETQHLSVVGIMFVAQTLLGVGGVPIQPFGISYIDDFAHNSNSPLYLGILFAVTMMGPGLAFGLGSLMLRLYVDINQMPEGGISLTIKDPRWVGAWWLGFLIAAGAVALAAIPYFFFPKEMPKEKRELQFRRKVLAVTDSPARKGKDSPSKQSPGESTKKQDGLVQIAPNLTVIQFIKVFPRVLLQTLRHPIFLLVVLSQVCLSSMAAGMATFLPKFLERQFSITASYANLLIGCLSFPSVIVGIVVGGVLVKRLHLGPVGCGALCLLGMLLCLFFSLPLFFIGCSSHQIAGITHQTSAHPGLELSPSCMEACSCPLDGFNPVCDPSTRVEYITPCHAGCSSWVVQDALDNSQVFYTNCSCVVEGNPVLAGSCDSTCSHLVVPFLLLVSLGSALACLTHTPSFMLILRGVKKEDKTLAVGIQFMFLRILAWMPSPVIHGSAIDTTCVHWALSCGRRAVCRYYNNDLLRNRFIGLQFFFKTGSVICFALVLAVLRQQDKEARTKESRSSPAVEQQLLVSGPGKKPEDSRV

The conditions of series [2]: higher than BUP; ref [10], [13], [16], [17]; cited from earlier work.
The conditions of series [3]: co-administration of clopidogrel and ticlopidine; ref [25]; cited from earlier work.

The structures appear in SMILES notation.

Turning to `C[C@H](NC(C)(C)C)[C@@H](O)c1cccc(Cl)c1` [TB, Threohydrobupropion], the “Substrate of OATP2B1 (conclusion)” value in series [1] was “not substrates”. Besides, the “Circulating concentration relative to the parent drug” value in series [2] is recorded as 3 – 30 fold.
Turning to `C[C@H]1NC(C)(C)CO[C@]1(O)c1cccc(Cl)c1` [OHB, Hydroxybupropion], the “Substrate of OATP2B1 (conclusion)” value in series [1] is “not substrates”. Also, in series [3], the “Decrease in AUC” value is on record as 60–89%. The “Circulating concentration relative to the parent drug” value in series [2] is 3 – 30 fold.
Take `CC(NC(C)(C)C)C(O)c1cccc(Cl)c1` (stereo not drawn) [EB, Erythrohydrobupropion]: in series [1], the “Substrate of OATP2B1 (conclusion)” value is “not substrates”.
